Laboratory results published in ChEMBL document CHEMBL2150933 (J Med Chem, 2012).
Active and inactive are the calls of the source. No cut-off for these calls is given here.

Legend:
OVCAR-8 = experiment: Cytotoxicity against human OVCAR8 cells after 48 hrs by SRB assay; assay type: functional; details: OVCAR-8, 48 h, read-out: pGI50 (converted)
Mus musculus [1] = experiment: Toxicity in athymic nu/nu Harlan mouse xenografted with human SK-MEL-2 cells assessed as change in body weight at 10 mg/kg, iv administered Q2D for 10 days relative to control; assay type: organism-based; parameters: dose 10 mg/kg, route intravenous; details: in vivo, 240 h
SN12C = experiment: Cytotoxicity against human SN12C cells after 48 hrs by SRB assay; assay type: functional
Mus musculus [2] = experiment: Toxicity in athymic nu/nu Harlan mouse xenografted with human SK-MEL-2 cells assessed as adverse reactions at 10 mg/kg, iv administered Q2D for 10 days relative to control; assay type: organism-based; parameters: dose 10 mg/kg, route intravenous; details: in vivo, 240 h
Mus musculus [3] = experiment: Toxicity in athymic nu/nu Harlan mouse xenografted with human COLO205 cells assessed as mortality at 10 mg/kg, iv administered Q2D for 10 days relative to control; assay type: organism-based, COLO 205; parameters: dose 10 mg/kg, route intravenous; details: in vivo, 240 h
MOLT-4 = experiment: Cytotoxicity against human MOLT4 cells after 48 hrs by SRB assay; assay type: functional; details: MOLT-4, 48 h
Mus musculus [4] = experiment: Toxicity in athymic nu/nu Harlan mouse xenografted with human SK-MEL-2 cells assessed as change in body weight at 20 mg/kg, iv administered Q3D for 10 days relative to control; assay type: organism-based; parameters: dose 20 mg/kg, route intravenous; details: in vivo, 240 h
HOP-62 = experiment: Cytotoxicity against human HOP62 cells after 48 hrs by SRB assay; assay type: functional; details: HOP-62, 48 h
ACHN = experiment: Cytotoxicity against human ACHN cells after 48 hrs by SRB assay; assay type: functional
NCI-H460 = experiment: Cytotoxicity against human NCI-H460 cells after 48 hrs by SRB assay; assay type: functional; details: NCI-H460, 48 h
OVCAR-3 = experiment: Cytotoxicity against human OVCAR3 cells after 48 hrs by SRB assay; assay type: functional; details: OVCAR-3, 48 h
OVCAR-5 = experiment: Cytotoxicity against human OVCAR5 cells after 48 hrs by SRB assay; assay type: functional; details: OVCAR-5, 48 h
A498 = experiment: Cytotoxicity against human A498 cells after 48 hrs by SRB assay; assay type: functional; details: A498, 48 h
SK-MEL-28 = experiment: Cytotoxicity against human SK-MEL-28 cells after 48 hrs by SRB assay; assay type: functional; details: SK-MEL-28, 48 h
[5] = Plasma concentration in CD1 mouse at 18 mg/kg, iv administered as single dose measured after 5 mins; assay type: ADME, organism-based; parameters: dose 18 mg/kg, route intravenous
Mus musculus [6] = experiment: Toxicity in iv dosed CD1 mouse administered Q3D for 8 days; assay type: organism-based; details: in vivo, 192 h
Mus musculus [7] = experiment: Toxicity in athymic nu/nu Harlan mouse xenografted with human COLO205 cells assessed as adverse reactions at 20 mg/kg, iv administered Q3D for 10 days relative to control; assay type: organism-based, COLO 205; parameters: dose 20 mg/kg, route intravenous; details: in vivo, 240 h
CCRF-CEM = experiment: Cytotoxicity against human CCRF-CEM cells after 48 hrs by SRB assay; assay type: functional
PC-3 = experiment: Cytotoxicity against human PC3 cells after 48 hrs by SRB assay; assay type: functional; details: PC-3, 48 h
Mus musculus [8] = experiment: Toxicity in athymic nu/nu Harlan mouse xenografted with human COLO205 cells assessed as change in body weight at 10 mg/kg, iv administered Q2D for 10 days relative to control; assay type: organism-based, COLO 205; parameters: dose 10 mg/kg, route intravenous; details: in vivo, 240 h
T47D = experiment: Cytotoxicity against human T47D cells after 48 hrs by SRB assay; assay type: functional
BT-549 = experiment: Cytotoxicity against human BT549 cells after 48 hrs by SRB assay; assay type: functional; details: BT-549, 48 h
MCF7 = experiment: Cytotoxicity against human MCF7 cells after 48 hrs by SRB assay; assay type: functional; details: MCF7, 48 h
OVCAR-4 = experiment: Cytotoxicity against human OVCAR4 cells after 48 hrs by SRB assay; assay type: functional; details: OVCAR-4, 48 h
Mus musculus [9] = experiment: Toxicity in athymic nu/nu Harlan mouse xenografted with human COLO205 cells assessed as change in body weight at 20 mg/kg, iv administered Q3D for 10 days relative to control; assay type: organism-based, COLO 205; parameters: dose 20 mg/kg, route intravenous; details: in vivo, 240 h
SR = experiment: Cytotoxicity against human SR cells after 48 hrs by SRB assay; assay type: functional
Mus musculus [10] = experiment: Toxicity in athymic nu/nu Harlan mouse xenografted with human COLO205 cells assessed as adverse reactions at 10 mg/kg, iv administered Q2D for 10 days relative to control; assay type: organism-based, COLO 205; parameters: dose 10 mg/kg, route intravenous; details: in vivo, 240 h
HOP-92 = experiment: Cytotoxicity against human HOP92 cells after 48 hrs by SRB assay; assay type: functional; details: HOP-92, 48 h
U-251 = experiment: Cytotoxicity against human U251 cells after 48 hrs by SRB assay; assay type: functional; details: U-251, 48 h, read-out: pGI50 (converted)
Mus musculus [11] = experiment: Toxicity in athymic nu/nu Harlan mouse xenografted with human COLO205 cells assessed as mortality at 20 mg/kg, iv administered Q3D for 10 days relative to control; assay type: organism-based, COLO 205; parameters: dose 20 mg/kg, route intravenous; details: in vivo, 240 h
NCI-H522 = experiment: Cytotoxicity against human NCI-H522 cells after 48 hrs by SRB assay; assay type: functional; details: NCI-H522, 48 h
COLO 205 = experiment: Cytotoxicity against human COLO205 cells after 72 hrs by MTT assay; assay type: functional; details: COLO 205, 72 h
EKVX = experiment: Cytotoxicity against human EKVX cells after 48 hrs by SRB assay; assay type: functional
M14 = experiment: Cytotoxicity against human M14 cells after 48 hrs by SRB assay; assay type: functional; details: M14, 48 h
SK-MEL-2 [12] = experiment: Cytotoxicity against human SK-MEL-2 cells after 48 hrs by SRB assay; assay type: functional; details: SK-MEL-2, 48 h
TK-10 = experiment: Cytotoxicity against human TK10 cells after 48 hrs by SRB assay; assay type: functional; details: TK-10, 48 h
SNB-75 = experiment: Cytotoxicity against human SNB75 cells after 48 hrs by SRB assay; assay type: functional; details: SNB-75, 48 h
SK-MEL-2 [13] = experiment: Antitumor activity against human SK-MEL-2 cells xenografted in athymic nu/nu Harlan mouse assessed as tumor growth inhibition at 10 mg/kg, iv administered Q2D for 10 days relative to control; assay type: functional, organism-based; parameters: dose 10 mg/kg

CO[C@@H]([C@@H]1Cc2cc3cc(O[C@H]4C[C@@H](O[C@H]5C[C@@H](O)[C@H](O)[C@@H](C)O5)[C@H](O)[C@@H](C)O4)c(C)c(O)c3c(O)c2C(=O)[C@H]1O[C@H]1C[C@@H](O[C@H]2C[C@@H](O[C@H]3C[C@H](O)[C@H](O)[C@@H](C)O3)[C@H](O)[C@@H](C)O2)[C@H](O)[C@@H](C)O1)[C@@H](O)C(C)=O
GI50 (OVCAR-8): 35.5 nM | Activity (Mus musculus [1]): Non-toxic | GI50 (SN12C): 20.9 nM | Activity (Mus musculus [2]): Non-toxic | Activity (Mus musculus [3]): Non-toxic | GI50 (MOLT-4): 19.9 nM | Activity (Mus musculus [4]): Non-toxic | GI50 (HOP-62): 24.6 nM | GI50 (ACHN): 34.7 nM | GI50 (NCI-H460): 17.8 nM | GI50 (OVCAR-3): 19.5 nM | GI50 (OVCAR-5): 39.8 nM | GI50 (A498): 14.4 nM | GI50 (SK-MEL-28): 18.6 nM | concentration at 5 min [5]: 28 µM | MTD (Mus musculus [6]): 24 mg/kg | Activity (Mus musculus [7]): Non-toxic | GI50 (CCRF-CEM): 24.6 nM | GI50 (PC-3): 21.4 nM | Activity (Mus musculus [8]): Non-toxic | GI50 (T47D): 25.7 nM | GI50 (BT-549): 18.2 nM | GI50 (MCF7): 13.8 nM | GI50 (OVCAR-4): 56.2 nM | Activity (Mus musculus [9]): Non-toxic | GI50 (SR): 12.9 nM | Activity (Mus musculus [10]): Non-toxic | GI50 (HOP-92): 26.9 nM | GI50 (U-251): 18.6 nM | Activity (Mus musculus [11]): Non-toxic | GI50 (NCI-H522): 17.8 nM | GI50 (COLO 205): 300 nM | GI50 (EKVX): 85.1 nM | GI50 (M14): 45.7 nM | GI50 (SK-MEL-2 [12]): 27.5 nM | GI50 (TK-10): 52.5 nM | GI50 (SNB-75): 32.4 nM | TGI (SK-MEL-2 [13]): Active
